Legend:
Assay type in all cases: cell-based, human
[1] = system: YY1 promoter; assay: YY1 promoter luciferase reporter assay in restimulated T cells; details: after four stimulations, continued presence of inhibitor; FIG. 5C upper
Procedure: Human YY1 promoter luciferase construct YY1-pGLuc-basic was a kind gift from Dr. Guangchao Sui of Wake Forest Health Sciences, NC (Huang et al., 2012 Nucleic Acids Res 40, 1033-1049). The cJun/ATF2 octameric palindrome cyclic AMP-response element (CRE), 5′-[…]-3′(SEQ ID NO: 40), was mutated to 5′-cGgCaTaA-3′ (SEQ ID NO: 41) using the service of GenScript Inc. (Item cat. 426354-1).
The reporter assays and plasmid overexpression were performed in 6 well tissue culture plates. 5×10^6 T cells were transfected with plasmids using Amaxa human T cell nucleofector Kit, cat. VPA-1002 (Lonza). Transfections were performed using Amaxa nucleofector II device, program no. T-023/T-020. Luciferase assays were generally performed 48 hours after transfections. […] The YY1 promoter luciferase assay was measured from T cell culture supernatants using BioLux Gaussia lucferase assay kit (New England Biolabs, cat. no. E3300S). Amounts of transfected plasmids were kept proportionally constant. Samples were assayed for reporter activity using a Gloma 20/20 Luminometer (Promega), essentially using the recommended parameters provided by the reagent suppliers.
In experiments using p38MAPK, JNK, MEK1 and Ezh2 inhibitors, cells were grown in the continued presence of inhibitors. After each wash and activation step, cells were treated with a fresh batch of inhibitors. […]

[2] = system: YY1; assay: Western blot of YY1 protein in T cells grown with kinase inhibitors; details: same cells as reporter assay; FIG. 5C lower
Procedure: (§1) In experiments using p38MAPK, JNK, MEK1 and Ezh2 inhibitors, cells were grown in the continued presence of inhibitors. After each wash and activation step, cells were treated with a fresh batch of inhibitors. The following inhibitors were used: MAPKp38-SB202190 (10 μmol/ml) (Sigma, cat. S7067), JNK-SP600125 (10 μmol/ml) (Sigma, cat. S5567), MEK1-PD98059 (5 μmol/ml) (Calbiochem, cat. 513001), MEK1/2-inhibitor III (5 μmol/ml) (Calbiochem, cat. 444966) and Ezh2-[…] (10 nmol) (Millipore, cat. 505052). DMSO was used as a mock treatment. The specificity of p38MAPK, JNK and MEK1 inhibitors to block the downstream kinases, phospho-ATF2, phospho-cJun and phospho-ERK, respectively, was confirmed by westerns (FIG. 18A).
(§2) For denaturing westerns, 20-40 μg of protein extracted from T cells was used. RIPA lysis buffer (Sigma, cat. R0278) was used to prepare whole cell extracts. For native gel analysis, cells were lysed in native lysis buffer (50 mM Tris-Cl, pH 8.0; 1% NP40; 150 mM NaCl, 100 μg leupeptin, 1 mM PMSF, 5 mM orthovanadate). For both native and denaturating conditions, samples were resolved on 4-15% TGX precast gels (Bio-Rad, cat. 456-1084) with the difference in running buffer. Native samples were run without SDS. […]

[3] = system: phospho-ATF2, phospho-cJun and phospho-ERK; assay: Kinase activities by western blot (inhibitor specificity); details: respectively, westerns, FIG. 18A
Procedure: as §1, §2

[4] = system: H3-K27 trimethylation; assay: Western blot for H3K27me3 in repeatedly stimulated T cells; details: inhibitor maintained in activation cultures; FIG. 2D
Procedure: as §1, §2

[5] = system: T cells; assay: IFNγ ELISA, repeatedly stimulated T cells; details: FIG. 16
Procedure: (§3) ELISA assays were performed using human IL2 and IFNγ Ready-SET-Go kits (eBioscience). Three replicates were included for each experimental set and each experiment was repeated three or more times. ELISA was performed on the supernatant saved from each stimulation step. CD4+ or CD8+ T cells were stimulated with anti-CD3/CD28 beads and cultured for 48 hours, after which cells were spun down and supernatants carefully removed and saved at −20° C. The same procedure was followed for the rest of the stimulation steps.
Human T cell isolation and culture in vitro. CD4+ and CD8+ T cells were enriched from peripheral blood mononuclear cells obtained from healthy donors. Leukoreduction filters from Boston Children's Hospital that were processed using histopaque (Sigma) cushions to separate PBMCs were used. Human CD8+ and CD4+ cells were enriched using naïve CD8 and CD4 T cell enrichment cocktail (BD Biosciences, cat. 51-900481 and 9002314, respectively). […] Cells were stimulated the same day with T-Activator CD3/CD28 dynabeads (Life Technologies, cat. 11131D) following the manufacturer's recommendations. 48 hours after the first stimulation, cells were counted and washed, and beads were removed using a magnet. This was followed by a second, third and fourth round of stimulations with fresh batches of CD3/CD28 beads. […]

[6] = system: MIPCEA cells; details: by the 3rd co-culture; Ezh2 inhibitor 10 nm
Text: (§4) To produce second generation CEA-CAR T cells, T cells were modified by retroviral gene therapy to express a single chain antibody domain (sFv) that recognizes CEA tumor antigen. This anti-CEA binding domain is fused together with the full length sequence of CD28 co-stimulatory molecule and sequences of the signaling chain of the CD3 complex (signal 1+2) (FIG. 6A) (Nolan et al., 1999). The clinical grade CEA-CAR vector producing cells have been successfully tested in a number of in vitro studies as well as in a clinical setting to modify T cells for breast cancer clinical trials (Katz et al., 2015). The first generation CEA-CAR contains anti-CEA binding domain fused with signaling chain (signal 1) (Nolan et al., 1999 Clin Cancer Res 5, 3928-3941). Transduction of T cells with anti CEA-CAR vector were as previously described (Beaudoin et al., 2008 Nat Med 9, 540-547).
MIP101 and MIPCEA, tumor cell coculture with CEA-CAR modified T cells. MIP101 is a CEA-undifferentiated human carcinoma cell line derived from liver metastases of colonic adenocarcinoma patients. The MIPCEA cell line was generated by stably expressing the full length CEA gene in MIP101 cells (Thomas et al., 1995 Cancer Lett 92, 59-66). […] Each time after the coculture, tumor cells were trypsinized (cellgro) and counted.

[7] = system: H3-K27 trimethylation of the IL2 promoter; assay: ChIP with anti-H3K27me3 antibody and qPCR for IL2 promoter; details: repeatedly stimulated CD4 T cells; FIG. 2E
Procedure: Chromatin immunoprecipitation assay. The ChIP assay was performed using a ChIP-IT high sensitivity kit (Active Motif, cat. 53040), following the manufacturer's recommended protocol. Human CD4+ T cells were repeatedly activated with CD3/CD28 beads in the continued presence of Ezh2 inhibitor or transfected with YY1 shRNA and a control after 2nd stimulation. Approximately 15 μg of chromatin was used in each reaction with an antibody that specifically recognizes H3K27me3 (Active Motif, cat. 39155). Fold enrichment was calculated relative to IgG and input.

[8] = system: CD4 T cells; assay: IL2 ELISA, T cells repeatedly stimulated with anti-CD3/CD28 beads (in vitro exhaustion model); details: T cells continuously with Ezh2 inhibitor (10 nmol), after the 4th stimulation
Procedure: as §1, §3
Human T cell isolation and culture in vitro. […] 48 hours after the first stimulation, cells were counted and washed, and beads were removed using a magnet. […]

[9] = system: CEA-CAR T cells; assay: IL2 ELISA in MIPCEA/CAR-T cell cocultures; details: 2nd generation CAR-T, MIPCEA cocultures; Ezh2 inhibitor 10 nm or nivolumab 20 μg/ml
Procedure: as §3
as §4, with “The first generation CEA-CAR contains anti-CEA binding domain fused with signaling chain (signal 1) (Nolan et al., 1999 Clin Cancer Res 5, 3928-3941). Transduction of T cells with anti CEA-CAR vector were as previously described (Beaudoin et al., 2008 Nat Med 9, 540-547).” left out
MIP101 and MIPCEA, tumor cell coculture with CEA-CAR modified T cells. […] Each time after the coculture, tumor cells were trypsinized (cellgro) and counted.

Compound	YY1 luciferase reporter transcriptional activity [1]	specificity to block the downstream kinases [3]	IL2 production of CAR-T cells on repeated exposure to tumor cells [9]	further results
Oc1ccc(-c2nc(-c3ccncc3)c(-c3ccc(F)cc3)[nH]2)cc1 [p38MAPK inhibitor, SB202190]	suppressed	confirmed	–	YY1 protein by Western blot [2]: suppressed
CCCc1cc(C)[nH]c(=O)c1CNC(=O)c1cc(-c2ccc(N3CCN(C(C)C)CC3)nc2)cc2c1cnn2C(C)C [Ezh2 inhibitor]	–	–	sustained IL2	H3-K27 trimethylation by western [4]: suppressed; IFNγ shutdown after repeated T cell stimulation [5]: does not protect; net benefit in killing versus untreated CAR-T cells [6]: 5 fold; H3-K27 trimethylation of the IL2 promoter by ChIP/qPCR [7]: suppressed; IL2 exceeding that of control T cells by a factor [8]: > 40
nivolumab	–	–	same IL2 loss as control T cells	–
COc1cccc(-c2cc(=O)c3ccccc3o2)c1N [MEK1 inhibitor, PD98059]	no impact	confirmed	–	–

— patent US11624068B2, “Compositions and methods for improving immune system function” (Tufts Medical Center, Inc., priority 2016, dated 2023)
